Data set [1] can be described thus: Circular dichroism spectroscopy, α-helical content. It counts as physicochemical. The following applies: CD, 10 mM phosphate buffer pH 7.5, 50 μM peptide, 25°C, calculated from ellipticity at 222 nm; average of three measurements. The method, boiled down: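 Peptides at 50 μM in 10 mM phosphate, pH 7.5, scanned 180–260 nm at 25 °C in a 0.5-mm cell, three scans averaged and buffer-subtracted. Percent helicity derived from per-residue molar ellipticity at 222 nm using a length-corrected 40,000 maximum.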

Another data set concerns rHRSV-mCherry. The following applies: read-out: EC50 (half-maximal response inhibitory concentration), inhibition of RSV infection; HEp-2 cells, MOI 0.2, peptides added after 2 h infection, mCherry fluorescence at 48 h postinfection; duplicates.
Another data set deals with BSRT7/5 cells. The data set is described as follows: Viability of BSRT7/5 cells transfected with the minigenome. The following applies: 25 μM peptide.
A further data set deals with HEp-2 cells. Nature of the data set: HEp-2 cell viability (CellTiter-Glo luminescent cell viability assay). The note with it: peptide alone at 50 μM; duplicates. In general terms: ATP-based viability assays read luminescence as a measure of living cells.
In a further data set the test system is BALB/c mice. The data set is described as follows: In vivo toxicity assessment in uninfected BALB/c mice.
In a further data set the test system is rHRSV-Luc. The data set is described as follows: Mouse RSV infection model (rHRSV-Luc, bioluminescence, lung histology).
The subject of a further data set is RSV. The following applies: monthly injection during the peak season, at-risk infants; cited from earlier work. An excerpt:
Respiratory syncytial virus (RSV) is very contagious and represents the main cause of severe acute respiratory tract illness in young children worldwide. […] A recent study performed by Pneumonia Etiology Research for Child Health ...

[2] abbreviates: 2 dpi, one i.n. treatment 50 μl at 215 μM, 1 × 10^5 PFU rHRSV-Luc, n = 5.
[3] abbreviates: 4 dpi, i.n. treatment at day 0 and 2 dpi, n = 5, Mann-Whitney test.

The source of these data is publication PMC7508628, “Targeting the Respiratory Syncytial Virus N^0-P Complex with Constrained α-Helical Peptides in Cells and Mice” (Antimicrobial Agents and Chemotherapy, 2020).

Where a SMILES comes first, the peptide text is derived from it. Bridges are numbered along the chain shown (N, C = ends). [ ]: non-standard residue; d: D form. R8 = C=CCCCCCC[C@@](C)(N)C(=O)O; R5 = C=CCCC[C@@](C)(N)C(=O)O; S5 = C=CCCC[C@](C)(N)C(=O)O

Text for BSRT7/5 cells: BSRT7/5 cells were transfected with plasmids pP, pN, pM2-1, pL, and pM/Luc, together with pRSV-β-Gal for transfection standardization. […] Error bars are standard deviations from duplicates. Data are representative of those from two independent experiments.
Briefly, the dicistronic RSV minigenome pM/Luc was cotransfected into BSRT7/5 cells expressing T7 RNA polymerase, together with plasmids pN, pP, pL, and pM2-1, resulting in the replication and transcription of the minigenome.
Experimental for HEp-2 cells: (B) HEp-2 cell viability upon treatment with peptides alone at peptide concentrations of 50, 25, and 12.5 μM. Error bars are standard deviations from duplicates. Data are representative of those from two independent experiments.
Cytotoxicity assays were done with the CellTiter-Glo luminescent cell viability assay (Promega). Each experiment was performed in duplicate and repeated at least twice.

Consider `CC[C@H](C)[C@H](NC(=O)[C@]1(C)CCCC=CCCCCCC[C@@](C)(NC(=O)[C@H](CCC(=O)O)NC(=O)[C@H](CC(N)=O)NC(=O)[C@H](C)NC(=O)[C@]2(C)CCCC=CCCC[C@@](C)(NC(=O)[C@H](Cc3ccccc3)NC(=O)[C@H](CCC(=O)O)NC(C)=O)C(=O)NCC(=O)N[C@@H](CCCCN)C(=O)N2)C(=O)N[C@@H](C)C(=O)N[C@@H]([C@@H](C)O)C(=O)N[C@@H](CCCCN)C(=O)N[C@@H](Cc2ccccc2)C(=O)N[C@@H](CC(C)C)C(=O)N[C@@H](CCC(=O)O)C(=O)N1)C(=O)N[C@@H](CCCCN)C(=O)NCC(=O)N[C@@H](CCCCN)C(=O)N[C@@H](Cc1ccccc1)C(=O)N[C@@H](C)C(=O)N[C@@H](CO)C(N)=O` [5d] (Ac-EF[R5]GK[S5]ANE[R8]ATKFLE[S5]IKGKFAS-NH2; staple 3-6, 10-17), for which, in data set [1], the “% helicity” value was 75.7%. In the data set on rHRSV-mCherry, the EC50 amounted to 6 ± 4.2 µM. Besides, the “Cell mortality of minigenome-transfected BSRT7/5 cells” value in the data set with BSRT7/5 cells worked out at 40%. The “Toxicity for uninfected HEp-2 cells (cell viability)” value in the data set on HEp-2 cells is “some toxicity”.
As for `CC[C@H](C)[C@H](NC(=O)[C@]1(C)CCCC=CCCCCCC[C@@](C)(NC(=O)[C@H](CCC(=O)O)NC(=O)[C@H](CC(N)=O)NC(=O)[C@H](C)NC(=O)[C@]2(C)CCCC=CCCC[C@@](C)(NC(=O)[C@H](Cc3ccccc3)NC(=O)[C@H](CCC(=O)O)NC(C)=O)C(=O)NCC(=O)N[C@@H](CCC(=O)O)C(=O)N2)C(=O)N[C@@H](C)C(=O)N[C@@H]([C@@H](C)O)C(=O)N[C@@H](CCCCN)C(=O)N[C@@H](Cc2ccccc2)C(=O)N[C@@H](CC(C)C)C(=O)N[C@@H](CCC(=O)O)C(=O)N1)C(=O)N[C@@H](CCCCN)C(=O)N[C@@H](CCCCN)C(=O)N[C@@H](CCCCN)C(=O)N[C@@H](Cc1ccccc1)C(=O)N[C@@H](C)C(=O)N[C@@H](CO)C(N)=O` [5a] (Ac-EF[R5]GE[S5]ANE[R8]ATKFLE[S5]IKKKFAS-NH2; staple 3-6, 10-17), the “Animals with focal lesions of the pulmonary parenchyma with infiltration by neutrophils (histology)” value with BALB/c mice (BALB/c mice n = 5, i.n. 50 μl at 215 μM at days 0 and 2, day 4, HES staining) is on record as 3 of the 5. In addition, the Macroscopic lung examination result in the data set with BALB/c mice (BALB/c mice n = 5, i.n. 50 μl at 215 μM at days 0 and 2, lungs collected at day 4) is reported as “no macroscopic sign of toxicity”. The “Body weight monitoring, signs of toxicity” value in the data set with BALB/c mice (BALB/c mice n = 5, i.n. 50 μl at 215 μM in PBS at days 0 and 2, days 0 to 4) is listed as “did not reveal any signs of toxicity”. Also, in the data set on rHRSV-Luc (setting [2]), the “Reduction in the level of RSV replication in the noses versus untreated mice” value is reported as 2 fold and the “Whole luminescence signal versus untreated infected mice” value was “no significant difference”. In the data set with rHRSV-Luc (4 dpi, HES staining, versus RSV-infected PBS mice), the “Intensity of interstitial pneumonia (lung histology)” value is listed as “decreased”. In addition, the “Animals with vascular and bronchial lesions (lung histology)” value with rHRSV-Luc (4 dpi, HES staining, all 5 untreated infected animals showed lesions) is recorded as 2 out of 5. Further, in the data set with rHRSV-Luc (setting [3]), the “Amount of bioluminescence versus untreated control group” value was “significant reduction” and the “Bioluminescence in the lungs versus untreated RSV-infected mice” value was “significantly reduced”. In the data set on rHRSV-Luc (daily monitoring, i.n. treatment at day 0 and 2 dpi, n = 5), the “Body weight of RSV-infected treated animals” value was “statistically nonsignificant loss of weight”. In addition, the “% helicity” value in data set [1] was more than 100%. Also, the EC50 in the data set with rHRSV-mCherry was 18.4 ± 9.3 µM. In the data set on HEp-2 cells, the “Toxicity for uninfected HEp-2 cells (cell viability)” value is listed as “no toxicity”.
For the compound “palivizumab: monoclonal antibody administered monthly as an injectable for RSV prophylaxis”, the “Efficacy of prophylactic treatment” value with RSV was “approximately 50%”.
